Assays:
Human Calpain 1/NS1 = biological target: T1, Human Calpain 1/NS1 (Homo sapiens, UniProt P07384); experiment: Biochemical inhibition of calpain 1, continuous fluorescence (FRET substrate) assay; details: mean, read-out: Human Calpain 1/NS1 IC50 (nM)_MEAN
T1 sequence (P07384 1-714): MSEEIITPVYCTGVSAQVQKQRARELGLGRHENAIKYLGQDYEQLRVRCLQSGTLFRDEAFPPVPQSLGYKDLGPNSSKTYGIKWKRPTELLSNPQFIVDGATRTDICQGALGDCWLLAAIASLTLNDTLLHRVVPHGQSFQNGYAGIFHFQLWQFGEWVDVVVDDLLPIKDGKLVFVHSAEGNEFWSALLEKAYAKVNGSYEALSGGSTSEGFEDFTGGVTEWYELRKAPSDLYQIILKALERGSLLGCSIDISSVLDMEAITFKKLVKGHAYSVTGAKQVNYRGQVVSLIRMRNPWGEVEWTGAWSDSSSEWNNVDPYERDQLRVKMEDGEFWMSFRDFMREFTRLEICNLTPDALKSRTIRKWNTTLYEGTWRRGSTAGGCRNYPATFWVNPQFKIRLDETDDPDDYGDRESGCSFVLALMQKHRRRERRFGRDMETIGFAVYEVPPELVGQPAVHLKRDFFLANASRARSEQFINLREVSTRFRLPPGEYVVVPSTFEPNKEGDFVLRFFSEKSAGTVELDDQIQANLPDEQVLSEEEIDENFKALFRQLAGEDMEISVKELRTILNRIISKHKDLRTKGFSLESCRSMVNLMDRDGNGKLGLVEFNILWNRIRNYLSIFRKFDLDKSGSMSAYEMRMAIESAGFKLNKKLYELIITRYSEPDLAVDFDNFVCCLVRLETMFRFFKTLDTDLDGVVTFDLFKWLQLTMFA
T1 sequence (P04632 1-268 partner): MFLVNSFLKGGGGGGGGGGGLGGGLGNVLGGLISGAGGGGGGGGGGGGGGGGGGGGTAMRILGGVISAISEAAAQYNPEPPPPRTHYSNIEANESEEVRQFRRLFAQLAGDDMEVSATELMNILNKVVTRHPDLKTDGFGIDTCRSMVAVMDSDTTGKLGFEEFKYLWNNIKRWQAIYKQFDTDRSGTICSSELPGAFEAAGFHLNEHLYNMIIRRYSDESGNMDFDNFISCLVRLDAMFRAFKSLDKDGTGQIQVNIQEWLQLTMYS
In short: (§1)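 Continuous FRET assay with 5-FAM/QXL520 peptide substrate in 50 mM Tris pH ~7.5, 100 mM NaCl, 1 mM DTT. Enzyme preincubated with inhibitor at 25C; reaction started with substrate plus CaCl2, read at 490/520 nm for 10 min. Rates from slopes over 1-5 min, IC50 from 4-parameter logistic fit.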

Human Calpain 2/NS1 = biological target: T2, Human Calpain 2/NS1 (Homo sapiens, UniProt P17655); experiment: Biochemical inhibition of calpain 2, continuous fluorescence (FRET substrate) assay; details: mean, read-out: Human Calpain 2/NS1 IC50 (nM)_MEAN
T2 sequence (P17655 1-700): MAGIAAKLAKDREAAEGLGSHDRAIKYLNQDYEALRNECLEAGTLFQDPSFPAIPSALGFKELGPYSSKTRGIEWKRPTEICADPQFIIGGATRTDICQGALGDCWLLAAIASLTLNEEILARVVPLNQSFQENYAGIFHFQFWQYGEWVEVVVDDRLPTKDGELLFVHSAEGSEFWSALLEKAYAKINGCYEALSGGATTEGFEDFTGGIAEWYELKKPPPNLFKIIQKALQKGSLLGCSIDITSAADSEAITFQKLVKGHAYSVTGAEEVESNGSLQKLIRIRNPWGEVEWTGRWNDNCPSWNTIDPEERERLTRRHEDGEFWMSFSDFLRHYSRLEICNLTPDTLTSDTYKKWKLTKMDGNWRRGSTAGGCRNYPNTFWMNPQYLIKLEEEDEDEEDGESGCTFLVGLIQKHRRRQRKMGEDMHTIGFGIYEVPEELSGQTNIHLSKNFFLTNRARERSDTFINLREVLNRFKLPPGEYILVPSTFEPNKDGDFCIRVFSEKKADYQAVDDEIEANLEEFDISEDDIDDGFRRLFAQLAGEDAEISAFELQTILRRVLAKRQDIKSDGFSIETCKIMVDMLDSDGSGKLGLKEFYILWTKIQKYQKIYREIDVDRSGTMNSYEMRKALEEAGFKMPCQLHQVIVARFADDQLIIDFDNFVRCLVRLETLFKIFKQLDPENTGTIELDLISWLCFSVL
T2 sequence (P04632 1-268 partner): T1 sequence (P04632 1-268 partner)
In short: as §1

Human Calpain 9/NS1 = biological target: T3, Human Calpain 9/NS1 (Homo sapiens, UniProt O14815); experiment: Biochemical inhibition of calpain 9, continuous fluorescence (FRET substrate) assay; details: mean, read-out: Human Calpain 9/NS1 IC50 (nM)_MEAN
T3 sequence (O14815 1-690): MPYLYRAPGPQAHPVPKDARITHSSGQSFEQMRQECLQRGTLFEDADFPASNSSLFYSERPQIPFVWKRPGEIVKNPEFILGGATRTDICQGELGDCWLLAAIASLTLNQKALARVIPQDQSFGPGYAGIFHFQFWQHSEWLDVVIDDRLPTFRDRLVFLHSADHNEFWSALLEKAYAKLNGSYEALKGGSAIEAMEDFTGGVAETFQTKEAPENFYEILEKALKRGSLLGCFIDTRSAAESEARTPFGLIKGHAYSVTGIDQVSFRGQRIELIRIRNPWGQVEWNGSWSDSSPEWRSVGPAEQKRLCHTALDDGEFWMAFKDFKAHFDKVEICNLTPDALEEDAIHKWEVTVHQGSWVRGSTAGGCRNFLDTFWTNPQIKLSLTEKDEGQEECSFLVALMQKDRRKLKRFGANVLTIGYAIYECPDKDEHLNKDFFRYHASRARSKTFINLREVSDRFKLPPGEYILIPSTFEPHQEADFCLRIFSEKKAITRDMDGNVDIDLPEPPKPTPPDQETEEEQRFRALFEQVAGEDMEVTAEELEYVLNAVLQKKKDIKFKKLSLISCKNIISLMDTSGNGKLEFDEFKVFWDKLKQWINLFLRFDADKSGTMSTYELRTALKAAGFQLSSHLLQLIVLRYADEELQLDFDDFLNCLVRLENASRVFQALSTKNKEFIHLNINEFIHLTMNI
T3 sequence (P04632 1-268 partner): T1 sequence (P04632 1-268 partner)
In short: as §1

Row | SMILES | IC50 (Human Calpain 1/NS1) [nM] | IC50 (Human Calpain 2/NS1) [nM] | IC50 (Human Calpain 9/NS1) [nM]
1 | COc1cccc(CCNC(=O)C(=O)C2CCCCOCCOCc3ccccc3C(=O)N2)c1 (stereo not drawn) [Compound 88, N-(3-methoxyphenethyl)-2-oxo-2-(12-oxo-1,3,4,6,7,8,9,10,11,12-decahydrobenzo[f][1,4]dioxa[9]azacyclotetradecin-10-yl)acetamide] | > 10000 | > 10000 | < 3000
2 | CS(=O)(=O)c1cccc(CNC(=O)C(=O)C2CCCCOCCOCc3ccccc3C(=O)N2)c1 (stereo not drawn) [Compound 118, N-(3-(methylsulfonyl)benzyl)-2-oxo-2-(12-oxo-1,3,4,6,7,8,9,10,11,12-decahydrobenzo[f][1,4]dioxa[9]azacyclotetradecin-10-yl)acetamide] | > 10000 | > 10000 | < 3000
3 | O=C[C@@H]1Cc2ccc(cc2)OCCCCOc2cccc(c2)-c2ccn(n2)-c2ncccc2C(=O)N1 [Compound 46, (6S,E)-4-oxo-2^1H-9,14-dioxa-5-aza-3(2,3)-pyridina-2(3,1)-pyrazola-1(1,3),8(1,4)-dibenzenacyclotetradecaphane-6-carbaldehyde] | < 3000 | < 3000 | < 3000
4 | CN(C)CCCNC(=O)C(=O)C1CCCCOCCOCc2ccccc2C(=O)N1 (stereo not drawn) [Compound 93, N-(3-(dimethylamino)propyl)-2-oxo-2-(12-oxo-1,3,4,6,7,8,9,10,11,12-decahydrobenzo[f][1,4]dioxa[9]azacyclotetradecin-10-yl)acetamide] | > 10000 | > 10000 | > 10000
5 | CS(=O)(=O)c1ccc(CNC(=O)C(=O)C2CCCCOCCOCc3ccccc3C(=O)N2)cc1 (stereo not drawn) [Compound 121, N-(4-(methylsulfonyl)benzyl)-2-oxo-2-(12-oxo-1,3,4,6,7,8,9,10,11,12-decahydrobenzo[f][1,4]dioxa[9]azacyclotetradecin-10-yl)acetamide] | > 10000 | 3000 to 10000 | < 3000
6 | Cn1cc2c(n1)-c1cccc(c1)OCCCCC[C@@H](C(=O)C(N)=O)NC2=O [Compound 142, (S)-2-(1′-methyl-11-oxo-1^1H-3-oxa-10-aza-1(3,4)-pyrazola-2(1,3)-benzenacycloundecaphane-9-yl)-2-oxoacetamide] | > 10000 | > 10000 | < 3000
7 | O=C(NC1(c2cccnc2)CC1)C(=O)C1CCCCOCCOCc2ccccc2C(=O)N1 (stereo not drawn) [Compound 125, 2-Oxo-2-(12-oxo-1,3,4,6,7,8,9,10,11,12-decahydrobenzo[f][1,4]dioxa[9]aza-cyclotetradecin-10-yl)-N-(1-(pyridin-3-yl)cyclopropyl)acetamide] | > 10000 | > 10000 | > 10000
8 | O=C[C@@H]1C/C=C/CCCCCCc2ccccc2C(=O)N1 [Compound 10, (S,E)-1-Oxo-1,2,3,4,7,8,9,10,11,12-decahydrobenzo[c][1]aza-cyclotetradecine-3-carbaldehyde] | 3000 to 10000 | < 3000 | < 3000
9 | O=C[C@@H]1Cc2ccc(cc2)OC/C=C/COc2cccc(c2)-c2ccn(n2)-c2ncccc2C(=O)N1 [Compound 44, (2^2E,6S,11E)-4-oxo-2^1H-9,14-dioxa-5-aza-3(2,3)-pyridina-2(3,1)-pyrazola-1(1,3),8(1,4)-dibenzenacyclotetradecaphan-11-ene-6-carbaldehyde] | < 3000 | < 3000 | < 3000
10 | CCNC(=O)C(=O)[C@@H]1C/C=C/CCCCCCCc2ccccc2C(=O)N1 [Compound 33, (S,E)-N-ethyl-2-oxo-2-(1-oxo-2,3,4,7,8,9,10,11,12,13-decahydro-1h-benzo[c][1]azacyclopentadecin-3-yl)acetamide] | > 10000 | > 10000 | > 10000
11 | CCNC(=O)C(=O)[C@@H]1C/C=C/CCCCCCc2ccccc2C(=O)N1 [Compound 17, (S,E)-N-ethyl-2-oxo-2-(1-oxo-1,2,3,4,7,8,9,10,11,12-decahydrobenzo[c][1]azacyclotetradecin-3-yl)acetamide] | > 10000 | > 10000 | > 10000
12 | C/C1=C\C[C@@H](C=O)NC(=O)c2cc(C)nn2-c2cccc(c2)OCC1 [Compound 144, (S,E)-1^3,6-dimethyl-11-oxo-1^1H-3-oxa-10-aza-1(1,5)-pyrazola-2(1,3)-benzenacycloundecaphan-6-ene-9-carbaldehyde] | < 3000 | < 3000 | < 3000
13 | Cc1cc2n(n1)-c1cccc(c1)OCCCCC[C@@H](C(=O)C(N)=O)NC2=O [Compound 141, (S)-2-oxo-2-(11-oxo-1^1H-3-oxa-10-aza-1(3,4)-pyrazola-2(1,3)-benzena-cycloundecaphane-9-yl)acetamide] | < 3000 | < 3000 | < 3000
14 | CCNC(=O)C(=O)[C@@H]1Cc2ccc(cc2)OCCCCOc2ccc3c(cnn3-c3ncccc3C(=O)N1)c2 [Compound 47, N-ethyl-2-oxo-2-((5S)-3-oxo-1H-8,13-dioxa-4-aza-1(1,5)-indazola-2(2,3)-pyridina-7(1,4)-benzenacyclotridecaphane-5-yl)acetamide] | < 3000 | < 3000 | < 3000
15 | O=C(NCCc1cccc(Cl)c1)C(=O)C1CCCCOCCOCc2ccccc2C(=O)N1 (stereo not drawn) [Compound 89, N-(3-chlorophenethyl)-2-oxo-2-(12-oxo-1,3,4,6,7,8,9,10,11,12-decahydrobenzo[f][1,4]dioxa[9]azacyclotetradecin-10-yl)acetamide] | > 10000 | > 10000 | < 3000
16 | CC(C)CCNC(=O)C(=O)C1CCCCOCCOCc2ccccc2C(=O)N1 (stereo not drawn) [Compound 90, N-isopentyl-2-oxo-2-(12-oxo-1,3,4,6,7,8,9,10,11,12-decahydrobenzo[f][1,4]dioxa[9]azacyclotetradecin-10-yl)acetamide] | > 10000 | 3000 to 10000 | < 3000
17 | NC(=O)C(=O)[C@@H]1CCCCCOc2ccnc(n2)-c2ccccc2C(=O)N1 [Compound 129, (S)-2-oxo-2-(3-oxo-11-oxa-4-aza-1(2,4)-pyrimidina-2(1,2)-benzena-cycloundecaphane-5-yl)acetamide] | < 3000 | < 3000 | < 3000
